For data set [1] the following is noted: estimated; cited from earlier work.
The target of a further data set is T1, recombinant human sEH (Homo sapiens, UniProt P34913).
T1 sequence (P34913 1-555): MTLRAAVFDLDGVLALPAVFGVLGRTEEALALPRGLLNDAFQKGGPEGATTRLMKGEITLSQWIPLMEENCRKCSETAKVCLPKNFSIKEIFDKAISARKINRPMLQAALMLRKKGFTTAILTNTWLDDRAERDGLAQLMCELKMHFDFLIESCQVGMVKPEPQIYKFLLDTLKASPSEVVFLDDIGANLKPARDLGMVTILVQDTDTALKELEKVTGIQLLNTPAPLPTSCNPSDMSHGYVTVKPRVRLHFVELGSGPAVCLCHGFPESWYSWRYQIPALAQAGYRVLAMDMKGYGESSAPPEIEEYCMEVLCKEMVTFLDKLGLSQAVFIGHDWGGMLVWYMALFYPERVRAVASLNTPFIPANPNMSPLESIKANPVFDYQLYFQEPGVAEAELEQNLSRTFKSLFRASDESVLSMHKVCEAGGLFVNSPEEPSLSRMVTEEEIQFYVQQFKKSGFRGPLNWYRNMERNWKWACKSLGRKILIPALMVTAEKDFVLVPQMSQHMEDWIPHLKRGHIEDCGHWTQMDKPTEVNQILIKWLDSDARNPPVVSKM
The class given is biochemical. The conditions noted are these: relative to compound 1.

For the compound `CCCCC[C@@H]1O[C@@H]1C/C=C\C/C=C\C/C=C\CCCC(=O)O` [14,15-EET, cis-14,15-epoxyeicosa-5(Z),8(Z),11(Z)-trienoic acid], the in vivo half-life result in data set [1] is “a few seconds to minutes”.

Regarding `CCCCCNC(=S)NCCCC/C=C\CCCCCCC(=O)O` [Compd 5, 13-(3-n-Pentylthioureido)tridec-8(Z)-enoic acid], the “decline of sEHi, factor with respect to 1” value at recombinant human sEH is 16.

Source of the values: article PMC2888647 (Journal of medicinal chemistry, 2009).
